Publication doi:10.1101/2025.09.04.674342, “Tandem association of CLOCK:BMAL1 complexes on DNA enables recruitment of CBP/p300 through multivalent interactions” (bioRxiv, 2025)
Each block holds one molecule with its values, some of them ahead of it. No end group written: not given here.

What was measured:
CBP KIX [1] = target: T1, CBP KIX (Mus musculus, UniProt P45481); test: 15N-1H HSQC NMR titration of 15N CBP KIX with BMAL1 TAD peptides; assay type: binding; conditions: for binding of locked switch peptides to CBP KIX by pattern of CSPs: Fig. 3d
T1 construct: mouse CBP (UniProt P45481) KIX (residues 586–672); made in house; host or cells: Rosetta (DE3) E. coli
T1 sequence (P45481 586-672): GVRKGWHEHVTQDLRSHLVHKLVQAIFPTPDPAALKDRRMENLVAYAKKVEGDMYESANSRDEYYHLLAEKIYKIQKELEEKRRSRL
Protocol: (§1) NMR experiments were conducted on a Varian INOVA 600-MHz spectrometer equipped with ^1H, ^13C, ^15N triple resonance, Z-axis pulsed field gradient cryoprobe. All NMR data were collected at 25°C. NMR data were processed using NMRPipe/NMRDraw[79]. ^15N-^1H HSQC spectra CBP KIX were performed in 330 μL volume in a Shigemi tube with 100 μM ^15N CBP KIX in NMR buffer (10 mM MES pH 6.5, 50 mM NaCl) and 10% (v/v) D2O in the presence of stepwise additions of concentrated stocks of BMAL1 TAD or truncated peptides. ^15N-^1H HSQC spectra of BMAL1 TAD WT or L606A/L607A were performed in 330 μL volume in a Shigemi tube with 100 μM ^15N BMAL1 TAD in NMR buffer (10 mM MES pH 6.5, 50 mM NaCl) and 10% (v/v) D2O in the presence of stepwise additions of CBP KIX (WT or 3mut), TAZ1, or TAZ2, followed by concentration in an Amicon Ultra centrifugal filter with a 3 kDa MWCO (Merck Millipore). Chemical shift assignments of BMAL1 TAD (entry 25280) and CBP KIX (entry 6750) were obtained from the Biological Magnetic Resonance Data Bank (BMRB); CBP KIX assignments at pH 5.5 were transferred to the spectrum at pH 6.5 via a 3-step pH titration. Titration data for protein interactions were analyzed with NMRViewJ (One Moon Scientific) using chemical shift perturbations defined by the equation ΔδTOT = [(Δδ^1H)^2 + (χ(Δδ^15N)^2]^½ and normalized with the scaling factor χ = 0.5[80].

CREB = tested on: CREB; parameters: method as in PMID 19810079, PMID 27211267; conditions: cited from earlier work
[2] = cited from earlier work
[3] = tested on: CREB-induced Per1-luc activation; test: Per1-luc reporter in HEK293T cells after forskolin stimulation; assay type: cell-based, human; conditions: compounds 16 hours, 10 μM forskolin 2 hours before harvest, n = 3, Fig. 5g
Protocol: HEK293T cells were purchased from ATCC (cat. #CRL-3216) were cultured in 10% DMEM (i.e. 10% (v/v) FBS) and 1X penicillin-streptomycin (Thermo Fisher) at 37°C in an incubator humidified with 5% CO2. Forskolin (CAS 66575-29-9, cat. #F3917, Sigma Aldrich), KG-501/naphthol-AS-E-phosphate (CAS 18228-17-6, cat. #70485, Sigma Aldrich), XX-650–23 (CAS 117739-40-9, cat. #AOB31725, Aobious), and 666–15 (CAS 1433286-70-4, cat. #AMBH97F07B56, Sigma Aldrich) were stored as recommended by the manufacturer and assessed by 1D NMR before use.
For Per1-luc reporter assays with inhibitors, 48-well plates with HEK293T cells were transfected with LT-1 (Mirus) and the following plasmids in duplicate: 5 ng pGL3 Per1-luciferase[8] and 395 ng empty pcDNA4 vector; for CLOCK:BMAL1 activity, 5 ng pGL3 Per1-luciferase, 100 ng pSG5 Clock, 100 ng pSG5 Bmal1, and 195 ng empty pcDNA4 vector. Cells were treated with compounds as indicated or 1% DMSO 24 hours after transfection for 16 hours prior to harvesting. For forskolin treatment, 10 μM forskolin was added 2 hours prior to harvesting. Cells were lysed in Passive Lysis Buffer ([…]) according to the protocol and luciferase activity was measured with Bright-Glo reagent ([…]) on an EnVision plate reader (Perkin Elmer). Each reporter assay was repeated at least three times.

CBP KIX [4] = target: T1, CBP KIX; test: Fluorescence polarization competition assay, CBP KIX:TAD WT titrated with KG-501; assay type: binding
Protocol: TAMRA fluorescent probe covalently attached to the N-terminus; the C-terminus of the Δswitch peptide was amidated, while the others were left as a free carboxyl group. Equilibrium binding assays (Fig. 5b) with CBP KIX, TAZ1, and TAZ2 and competition assay with CBP KIX:TAD WT titrated with KG-501 (Fig. 5i) were performed in 10 mM MES pH 6.5, 50 mM NaCl and 0.05% (v/v) Tween-20. Concentrated stocks of BMAL1 TAD probes were stored between 15–200 μM at −70°C and diluted in assay buffer to 50 nM alone (binding assays) or to 10 nM bound to 2 μM CBP KIX (competition assay) and in the presence of increasing concentrations of KG-501. Plates were incubated at room temperature for 10–20 minutes prior to analysis. Binding was monitored by changes in fluorescence polarization with an EnVision 2103 multilabel plate reader (Perkin Elmer) with excitation at 531 nm and emission at 595 nm. The Hill coefficient and equilibrium binding dissociation constant (KD) were calculated by fitting the dose-dependent change in millipolarization (Δmp) to a one-site specific binding model (binding assays) or an [inhibitor] vs. response (three parameters) model (competition assay) in Prism (GraphPad). Data shown for equilibrium binding assays are from a representative experiment (n=4 replicates) of three independent assays (Fig. 5b). […]

[5] = tested on: 3mut CBP KIX (Y650A, A654Q, Y658A); test: Isothermal titration calorimetry, 3mut CBP KIX with BMAL1 TAD; assay type: binding, mouse; conditions: same conditions as WT KIX; Fig. 4b
Protocol: (§2) ITC measurements were obtained as previously described. Briefly, proteins were extensively dialyzed at 4°C in 10 mM MES pH 6.5, 50 mM NaCl using a 2 kDa molecular weight cutoff filter dialysis tubing (Spectrum Labs) prior to collecting ITC data. ITC was performed on a MicroCal VP-ITC calorimeter at 25°C with a stir speed of 177 rpm, reference power of 10 μCal/sec and 10 μL injection sizes. Protein ratios for the cell and syringe for the ITC assays (3 independent runs for each complex) were 220–230 μM CBP KIX WT or 3mut titrated into 20–25 μM BMAL1 TAD WT or L606A/L607A as indicated (stoichiometry (n) = 0.8–1.1). All data were best fit by a one-site binding model using Origin software.

[6] = tested on: 3mut CBP KIX (Y650A, A654Q, Y658A); test: 15N-1H HSQC NMR titration of 15N BMAL1 TAD with 3mut CBP KIX; assay type: binding, mouse; conditions: versus WT KIX
Protocol: as §1

WT CBP KIX = test: Isothermal titration calorimetry, CBP KIX WT with BMAL1 TAD; assay type: binding, mouse
Protocol: as §2

CBP TAZ1 = target: T2, CBP TAZ1 (Mus musculus, UniProt P45481); test: 15N-1H HSQC NMR titration of 15N BMAL1 TAD L606A/L607A with CBP TAZ1; assay type: binding; conditions: 100 μM 15N TAD L606A/L607A; Fig. 6e,f
T2 construct: Mouse CBP (UniProt P45481) TAZ1 (residues 340–439); made in house; host or cells: Rosetta (DE3) E. coli
T2 sequence (P45481 340-439): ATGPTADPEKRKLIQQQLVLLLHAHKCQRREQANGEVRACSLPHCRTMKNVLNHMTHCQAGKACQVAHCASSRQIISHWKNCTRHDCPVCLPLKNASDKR
Protocol: as §1

CBP TAZ2 = target: T3, CBP TAZ2 (Mus musculus, UniProt P45481, C1776A/C1784A/C1827A/C1828A); test: 15N-1H HSQC NMR titration of 15N BMAL1 TAD L606A/L607A with CBP TAZ2; assay type: binding; conditions: 100 μM 15N TAD L606A/L607A; Fig. 6g,h
T3 construct: Mouse CBP (UniProt P45481) TAZ2 (residues 1764–1855); MBP; made in house; host or cells: E. coli (BL21)
T3 sequence (P45481 1764-1855 C1776A/C1784A/C1827A/C1828A): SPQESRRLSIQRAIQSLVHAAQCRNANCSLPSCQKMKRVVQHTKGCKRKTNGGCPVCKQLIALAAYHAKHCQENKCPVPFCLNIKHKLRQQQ
Protocol: as §1

CBP KIX [7] = target: T1, CBP KIX; test: 15N-1H HSQC NMR titration of 15N BMAL1 TAD L606A/L607A with CBP KIX; assay type: binding; conditions: versus WT TAD with WT KIX
Protocol: as §1

Molecule: FSDLPWdmPL [P625dmP-switch, cis-locked switch peptide with 5,5-dimethyl L-proline at position 625]
- binding of locked switch peptides to CBP KIX by pattern of CSPs (CBP KIX [1]; 100 μM 15N CBP KIX): can bind at the MLL1 site

Molecule: N#Cc1ccc(NC(=O)c2cc3ccccc3cc2O)cc1 [XX-650–23]
- activity in cells relative to KG-501 (CREB): more active in cells
- solubility [2]: poor solubility

Molecule: O=C(Nc1ccc(Cl)cc1)c1cc2ccccc2cc1OP(=O)(O)O [KG-501, naphthol-AS-E-phosphate]
- Activation of Per1-luc reporter after forskolin (Fsk) stimulation [3]: moderately decreased potency relative to the others
- IC50 (CBP KIX [4]; 2 μM CBP KIX bound to 10 nM [5,6] TAMRA-labeled minimal BMAL1 TAD probe, 10 mM MES pH 6.5, 50 mM NaCl, 0.05% Tween-20, mean from 2 replicates done in duplicate, read-out: IC50, displacement of CBP KIX from TAD probe): 222 ± 22.5 µM
- Ki (CBP KIX [4]; KD = 2 μM set for the BMAL1 TAD-CBP KIX interaction, read-out: Ki calculated from the Cheng-Prusoff equation): 111 µM

Molecule: FSDLPWAL [P625A switch, trans-locked switch peptide with P625A substitution]
- binding of locked switch peptides to CBP KIX by pattern of CSPs (CBP KIX [1]; 100 μM 15N CBP KIX): can bind at the MLL1 site

Further lines, with some results ahead:

- KD for the CBP KIX domain estimated by fitting concentration-dependent CSPs (CBP KIX [1]; 100 μM 15N CBP KIX, 10 mM MES pH 6.5, 50 mM NaCl, 25°C, Fig. 3b): hundreds of micromolar
- Kd (CBP KIX [1]; 100 μM 15N CBP KIX, 10 mM MES pH 6.5, 50 mM NaCl, 25°C, Fig. 3b, read-out: KD for the CBP KIX domain estimated by fitting concentration-dependent CSPs): > 500 µM
Molecule: FSDLPWPL-OH [switch]

- apparent affinity for CBP KIX relative to the isolated switch peptide (CBP KIX [1]; 100 μM 15N CBP KIX titrated with peptide, Fig. 3a): modestly higher apparent affinity
- site of chemical shift perturbations on CBP KIX (CBP KIX [1]; peptide 100 μM, 1:1 stoichiometry with 15N CBP KIX, Fig. 2e): perturbs the MLL1 site
Molecule: linker-switch: residues 613–626 of mouse BMAL1 (LGGPVDFSDLPWPL)

- binding by ITC (in words) [5]: disrupted
- Kd (WT CBP KIX; 220–230 μM CBP KIX titrated into 20–25 μM BMAL1 TAD, 10 mM MES pH 6.5, 50 mM NaCl, 25°C, 3 independent runs, one-site model, read-out: KD by ITC): ~2 µM
Molecule: BMAL1 TAD: recombinant mouse BMAL1 transactivation domain, residues 579–626
- reduction of affinity by mutation of the CBP KIX c-Myb site [6]: about 100 fold

- changes of the 15N-1H HSQC spectrum on addition of CBP TAZ1 (CBP TAZ1): almost no changes to the spectrum
- interaction with CBP TAZ2 by 15N-1H HSQC (CBP TAZ2): retained interaction
- reduction of affinity for CBP KIX by mutation in the BMAL1 TAD helix (CBP KIX [7]): about 100 fold
- binding by ITC (in words) (WT CBP KIX; same conditions as WT TAD, Fig. 4e): did not yield any binding heats
Molecule: TAD LL/AA: recombinant BMAL1 TAD (579–626) with L606A/L607A mutation of the IXXLL motif
